Data taken from ChEMBL document CHEMBL4673358 (Bioorg Med Chem Lett, 2021).
The source made the active and inactive calls. The calls are words filed in the database; no cut-off is given here.

Experiments:
[1] = Metabolic stability in mouse liver microsomes assessed as intrinsic clearance; format: ADME, Microsome; conditions: read-out: CLH
[2] = Metabolic stability in human liver microsomes assessed as intrinsic clearance; format: ADME, Microsome; conditions: read-out: CLH
[3] = biological target: Tryptophan 2,3-dioxygenase (Homo sapiens, UniProt P48775); assay: Inhibition of TDO in HEK cells; format: cell-based
[4] = biological target: T1, Indoleamine 2,3-dioxygenase 1 (Homo sapiens, UniProt P14902); assay: Inhibition of IDO1 in human SKOV3 cells; format: cell-based, SK-OV-3
[5] = biological target: T1, Indoleamine 2,3-dioxygenase 1; assay: Inhibition of IDO1 in human whole blood; format: tissue-based
[6] = biological target: Indoleamine 2,3-dioxygenase 1 (Mus musculus) (UniProt P28776); assay: In vivo inhibition of IDO1 in mouse assessed as reduction in LPS-induced kynurenine level at 30 mg/kg, po administered as single dose measured after 36 hrs relative to control; format: functional, organism-based
[7] = Metabolic stability in human hepatocytes assessed as intrinsic clearance measured per million cells; format: ADME, cell-based, Hepatocyte; conditions: read-out: CLH
[8] = Metabolic stability in human hepatocytes assessed as half life; format: ADME, cell-based, Hepatocyte
[9] = Half life in mouse at 10 mg/kg, po; format: ADME, organism-based; conditions: in vivo
[10] = AUC(0 to 24 hrs) in mouse at 10 mg/kg, po; format: ADME, organism-based; design: time < 24 hr, route oral, dose 10 mg/kg; conditions: in vivo
[11] = Cmax in mouse at 10 mg/kg, po; format: ADME, organism-based; design: route oral, dose 10 mg/kg; conditions: in vivo

T1 sequence (P14902 whole entry): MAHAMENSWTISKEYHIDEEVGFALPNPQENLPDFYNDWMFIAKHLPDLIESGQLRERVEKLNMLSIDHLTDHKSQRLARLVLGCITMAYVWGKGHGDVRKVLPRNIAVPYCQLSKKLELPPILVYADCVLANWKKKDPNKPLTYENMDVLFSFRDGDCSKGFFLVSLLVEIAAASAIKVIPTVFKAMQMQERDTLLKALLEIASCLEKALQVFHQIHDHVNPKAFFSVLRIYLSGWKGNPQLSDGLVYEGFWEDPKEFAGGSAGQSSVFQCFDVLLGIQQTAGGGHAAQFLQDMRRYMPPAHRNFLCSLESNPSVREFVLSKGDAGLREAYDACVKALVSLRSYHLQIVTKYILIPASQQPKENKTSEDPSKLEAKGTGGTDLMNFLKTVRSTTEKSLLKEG
Chain of Tryptophan 2,3-dioxygenase (P48775 whole entry): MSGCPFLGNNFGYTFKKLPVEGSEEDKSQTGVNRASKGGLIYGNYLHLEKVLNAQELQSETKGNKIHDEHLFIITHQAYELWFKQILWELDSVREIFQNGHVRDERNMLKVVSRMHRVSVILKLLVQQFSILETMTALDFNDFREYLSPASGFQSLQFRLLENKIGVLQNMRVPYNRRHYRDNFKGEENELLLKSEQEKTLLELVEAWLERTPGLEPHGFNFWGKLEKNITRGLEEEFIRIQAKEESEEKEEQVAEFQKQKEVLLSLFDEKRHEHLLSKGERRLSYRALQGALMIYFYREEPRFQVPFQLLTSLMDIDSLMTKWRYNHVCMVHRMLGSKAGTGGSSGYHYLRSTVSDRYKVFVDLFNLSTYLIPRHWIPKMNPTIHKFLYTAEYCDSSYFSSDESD
Chain of Indoleamine 2,3-dioxygenase 1 (Mus musculus) (P28776 whole entry, looked up): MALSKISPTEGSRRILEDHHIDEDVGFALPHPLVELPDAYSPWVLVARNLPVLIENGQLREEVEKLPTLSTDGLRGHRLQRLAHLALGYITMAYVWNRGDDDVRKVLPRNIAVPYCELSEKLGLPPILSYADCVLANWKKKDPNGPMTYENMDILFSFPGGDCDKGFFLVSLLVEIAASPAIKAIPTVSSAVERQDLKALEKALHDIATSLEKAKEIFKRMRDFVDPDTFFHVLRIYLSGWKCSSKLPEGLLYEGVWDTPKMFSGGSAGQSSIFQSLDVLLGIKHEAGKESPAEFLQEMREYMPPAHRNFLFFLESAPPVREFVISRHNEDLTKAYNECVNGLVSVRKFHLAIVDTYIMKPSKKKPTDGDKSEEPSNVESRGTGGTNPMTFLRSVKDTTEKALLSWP

Row | Compound | microsomal CLint [1] [µL/min/mg] | microsomal CLint [2] [µL/min/mg] | IC50 [3] [nM] | IC50 [4] [nM] | IC50 [5] [nM] | inhibition [6] | hepatocyte CLint [7] [µL/min/1e6 cells] | half-life [8] [h] | half-life [9] [h] | AUC(0-t) at 24 h [10] [µM·h] | Cmax [11] [nM]
1 | CC(C)(C(=O)Nc1ccc(Cl)cc1)N1CCC2(CC1)COc1cc(C(F)(F)F)ccc12 | 117 | 34 | 47900 | 11 |  |  |  |  |  |  | 
2 | O=C(CN1CCC2(CC1)COc1cc(C(F)(F)F)ccc12)Nc1ccc(Cl)cc1 |  |  | 25700 | 260 |  |  |  |  |  |  | 
3 | O=C(Nc1ccc(Cl)cc1)C(=O)N1CCC(c2ccnc3ccc(F)cc23)CC1 |  |  |  | 15 | 1600 |  |  |  |  |  | 
4 | C[C@H](C(=O)Nc1ccc(Cl)cc1)[C@H]1CC[C@]2(CC1)COc1ncc(C(F)(F)F)cc12 | 19 | 3 | 18400 | 7.9 |  |  |  |  |  |  | 
5 | CC(C(=O)Nc1ccc(Cl)cc1)C1CCC2(CC1)c1ccc(C(F)(F)F)cc1CN2C (stereo not drawn) | 9.5 | 1.4 | 7100 | 8.3 |  |  |  |  |  |  | 
6 | O=C(CN1CCC2(CCc3ccccc32)CC1)Nc1ccc(Cl)cc1 |  |  | 42800 | 670 |  |  |  |  |  |  | 
7 | CC(C(=O)Nc1ccc(Cl)cc1)N1CCC2(CC1)COc1cc(C(F)(F)F)ccc12 (racemic) | 56 | 11 | 35600 | 22 | 1320 |  |  |  |  |  | 
8 | C[C@H](C(=O)Nc1ccc(Cl)cc1)[C@H]1CC[C@]2(CC1)COc1nc(C(F)(F)F)ccc12 | 3.5 | 1.6 | 7100 | 5.4 |  |  |  |  |  |  | 
9 | C[C@@H](C(=O)Nc1ccc(Cl)cc1)[C@H]1CC[C@@H](c2ccnc3ccc(F)cc32)CC1 |  |  |  |  |  | Active | 4.5 | 2.55 | 2.5 | 9.3 | 2000
10 | C[C@H](C(=O)Nc1ccc(Cl)cc1)[C@H]1CC[C@@]2(CC1)COc1cc(C(F)(F)F)ccc12 | 193 | 67 | 7800 | 5.1 | 51 |  |  |  |  |  | 
11 | O=C(Nc1ccc(Cl)cc1)C(CC1CC1)N1CCC2(CC1)COc1cc(C(F)(F)F)ccc12 (stereo not drawn) | 14 | 13 | 15900 | 4.4 | 300 |  |  |  |  |  | 
